# Laboratory results as given in ChEMBL document CHEMBL1909046, “DrugMatrix in vitro pharmacology data”.
# Tests used:
# [1] = molecular target: T1, B2 bradykinin receptor (Homo sapiens, UniProt P30411); format: cell membranes, Membrane; conditions: chem-1; further: in other assays of this panel Not Active means under 50% inhibition at 10 µM
# T1 sequence (P30411 whole entry): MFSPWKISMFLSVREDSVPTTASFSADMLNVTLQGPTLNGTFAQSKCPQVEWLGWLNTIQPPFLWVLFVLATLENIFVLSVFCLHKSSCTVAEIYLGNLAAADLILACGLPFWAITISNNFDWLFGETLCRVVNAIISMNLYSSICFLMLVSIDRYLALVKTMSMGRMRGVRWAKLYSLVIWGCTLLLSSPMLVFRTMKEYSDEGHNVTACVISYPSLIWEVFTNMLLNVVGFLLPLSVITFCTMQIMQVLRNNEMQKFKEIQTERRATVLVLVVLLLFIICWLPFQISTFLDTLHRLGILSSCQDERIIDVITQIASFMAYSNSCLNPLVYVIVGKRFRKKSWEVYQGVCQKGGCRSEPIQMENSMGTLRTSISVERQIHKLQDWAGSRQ
# [2] = molecular target: T2, Calcitonin receptor (Homo sapiens, UniProt P30988); format: cell membranes, Membrane; conditions: t47d; further: in other assays of this panel Not Active means under 50% inhibition at 10 µM
# T2 sequence (P30988 whole entry): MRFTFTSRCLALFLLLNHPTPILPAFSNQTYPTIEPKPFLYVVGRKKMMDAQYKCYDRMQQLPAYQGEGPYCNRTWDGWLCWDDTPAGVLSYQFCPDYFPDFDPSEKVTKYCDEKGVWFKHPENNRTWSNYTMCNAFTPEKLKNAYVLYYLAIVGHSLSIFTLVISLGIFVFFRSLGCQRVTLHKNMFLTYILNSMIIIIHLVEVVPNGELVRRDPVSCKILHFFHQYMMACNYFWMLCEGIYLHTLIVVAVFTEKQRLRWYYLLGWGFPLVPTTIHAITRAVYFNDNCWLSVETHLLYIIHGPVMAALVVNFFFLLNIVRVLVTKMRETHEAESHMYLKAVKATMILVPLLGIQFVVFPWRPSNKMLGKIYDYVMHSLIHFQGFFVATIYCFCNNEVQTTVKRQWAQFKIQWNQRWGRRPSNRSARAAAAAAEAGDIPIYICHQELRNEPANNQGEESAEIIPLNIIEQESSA
# [3] = molecular target: 5-hydroxytryptamine receptor 2B (Homo sapiens, UniProt P41595); format: cell membranes, CHO-K1, Membrane; further: in other assays of this panel Not Active means under 50% inhibition at 10 µM
# Chain of 5-hydroxytryptamine receptor 2B (P41595 whole entry): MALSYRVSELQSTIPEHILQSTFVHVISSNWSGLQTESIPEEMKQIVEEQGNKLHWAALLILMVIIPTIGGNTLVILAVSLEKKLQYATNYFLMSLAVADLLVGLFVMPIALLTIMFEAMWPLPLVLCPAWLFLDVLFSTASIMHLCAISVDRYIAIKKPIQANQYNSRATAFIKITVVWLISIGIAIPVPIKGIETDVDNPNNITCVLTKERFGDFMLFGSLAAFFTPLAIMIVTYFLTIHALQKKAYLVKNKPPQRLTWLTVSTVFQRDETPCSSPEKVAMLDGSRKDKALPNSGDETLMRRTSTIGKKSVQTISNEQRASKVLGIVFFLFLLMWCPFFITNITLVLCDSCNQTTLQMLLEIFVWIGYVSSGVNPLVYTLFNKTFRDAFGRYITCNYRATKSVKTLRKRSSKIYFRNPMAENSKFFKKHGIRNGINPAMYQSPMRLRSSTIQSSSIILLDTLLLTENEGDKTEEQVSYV
# [4] = DRUGMATRIX: Sigma2 radioligand binding (ligand: [3H] Ifenprodil); format: cell membranes, Rattus norvegicus, Wistar, Brain, Membrane; conditions: Not Active = under 50% inhibition at 10 µM
# [5] = DRUGMATRIX: Calcium Channel Type L, Phenylalkylamine radioligand binding (ligand: [3H] (-)-Desmethoxyverapamil (D-888)); format: cell membranes, Rattus norvegicus, Wistar, Brain, Membrane; conditions: Not Active = under 50% inhibition at 10 µM
# [6] = molecular target: Carbonic anhydrase 2 (Homo sapiens, UniProt P00918); test: DRUGMATRIX: Carbonic Anhydrase II enzyme inhibition (substrate: 4-Nitrophenyl acetate (4-NPA)); format: tissue-based, Erythrocyte; conditions: erythrocyte; Not Active = under 50% inhibition at 10 µM
# [7] = molecular target: Prostaglandin G/H synthase 1 (Homo sapiens, UniProt P23219); test: biochemical; format: tissue-based, Platelet; conditions: platelet;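 further: inhibition of COX-1 enzyme activity, with arachidonic acid supplied as substrate; in other assays of this panel Not Active means under 50% inhibition at 10 µM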
# Chain of Prostaglandin G/H synthase 1 (P23219 whole entry): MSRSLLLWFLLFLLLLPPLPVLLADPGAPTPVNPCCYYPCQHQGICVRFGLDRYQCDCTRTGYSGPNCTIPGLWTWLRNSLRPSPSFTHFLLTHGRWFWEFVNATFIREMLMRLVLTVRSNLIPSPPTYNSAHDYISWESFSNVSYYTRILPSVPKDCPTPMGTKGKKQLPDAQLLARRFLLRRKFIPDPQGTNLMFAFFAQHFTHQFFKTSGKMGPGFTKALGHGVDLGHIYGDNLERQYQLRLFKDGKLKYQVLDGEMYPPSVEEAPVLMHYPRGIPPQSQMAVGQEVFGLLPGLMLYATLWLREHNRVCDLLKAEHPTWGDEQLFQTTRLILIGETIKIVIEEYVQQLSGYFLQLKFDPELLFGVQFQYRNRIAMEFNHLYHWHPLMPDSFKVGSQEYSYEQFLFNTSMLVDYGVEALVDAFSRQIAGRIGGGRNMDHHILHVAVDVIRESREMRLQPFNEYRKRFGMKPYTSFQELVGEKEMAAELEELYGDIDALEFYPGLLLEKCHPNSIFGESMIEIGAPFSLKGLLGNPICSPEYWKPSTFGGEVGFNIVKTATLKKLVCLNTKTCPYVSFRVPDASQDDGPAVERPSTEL
# [8] = DRUGMATRIX: Phosphodiesterase PDE4 enzyme inhibition (substrate: [3H]cAMP + cAMP); conditions: u-937; Not Active = under 50% inhibition at 10 µM
# [9] = DRUGMATRIX: Potassium Channel [KATP] radioligand binding (ligand: [3H] Glyburide); format: cell membranes, Membrane; conditions: hit-t15; Not Active = under 50% inhibition at 10 µM
# [10] = molecular target: T3, Interstitial collagenase (Homo sapiens, UniProt P03956); format: tissue-based, Rheumatoid synovial fibroblasts
# T3 sequence (P03956 whole entry): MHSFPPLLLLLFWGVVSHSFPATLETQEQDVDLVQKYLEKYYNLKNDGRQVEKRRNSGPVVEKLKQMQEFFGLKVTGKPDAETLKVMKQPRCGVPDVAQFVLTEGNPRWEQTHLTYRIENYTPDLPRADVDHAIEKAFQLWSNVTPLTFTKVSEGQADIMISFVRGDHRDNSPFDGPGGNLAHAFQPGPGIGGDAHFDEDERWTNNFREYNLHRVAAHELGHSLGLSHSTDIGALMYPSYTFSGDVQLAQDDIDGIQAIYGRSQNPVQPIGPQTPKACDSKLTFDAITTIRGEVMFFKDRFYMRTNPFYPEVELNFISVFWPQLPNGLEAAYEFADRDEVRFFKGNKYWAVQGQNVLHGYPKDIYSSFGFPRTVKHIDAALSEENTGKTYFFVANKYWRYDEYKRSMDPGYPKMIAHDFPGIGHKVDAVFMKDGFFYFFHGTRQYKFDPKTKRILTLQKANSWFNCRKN
# [11] = molecular target: T4, Adenosine receptor A3 (Homo sapiens, UniProt P0DMS8); format: cell membranes, CHO-K1, Membrane; conditions: cho-k1
# T4 sequence (P0DMS8 whole entry): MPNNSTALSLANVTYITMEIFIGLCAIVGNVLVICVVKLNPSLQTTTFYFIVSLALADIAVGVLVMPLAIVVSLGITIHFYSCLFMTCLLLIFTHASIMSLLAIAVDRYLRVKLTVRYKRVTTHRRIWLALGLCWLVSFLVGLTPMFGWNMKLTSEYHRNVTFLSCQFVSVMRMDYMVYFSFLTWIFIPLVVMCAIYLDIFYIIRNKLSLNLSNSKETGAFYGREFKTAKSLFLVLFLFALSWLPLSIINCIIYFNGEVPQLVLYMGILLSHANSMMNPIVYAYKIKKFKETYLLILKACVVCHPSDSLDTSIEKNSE
Structure (SMILES),IC50 [1],IC50 [2],IC50 ([3]; cho-k1),IC50 [4],Ki [4],IC50 [5],Ki [5],IC50 [6],IC50 [7],IC50 [8],Ki [8],IC50 [9],Ki [9],IC50 [10],IC50 [11],IC50 ([3]; read-out: IC50),Ki ([3]; read-out: Ki),IC50 ([4]; read-out: IC50),Ki ([4]; read-out: Ki)
CCCSc1ccc2nc(NC(=O)OC)[nH]c2c1 [ALBENDAZOLE],Not Active,Not Active,Not Active,Not Active,Not Active,Not Active,Not Active,Not Active,Not Active,Not Active,Not Active,Not Active,Not Active,Not Active,Not Active,–,–,–,–
Oc1cccc2cccnc12 [OXYQUINOLINE],Not Active,Not Active,Not Active,Not Active,Not Active,Not Active,Not Active,Not Active,Not Active,Not Active,Not Active,Not Active,Not Active,Not Active,Not Active,–,–,–,–
Cc1[nH]cnc1CN1CCc2c(c3ccccc3n2C)C1=O [ALOSETRON],Not Active,Not Active,–,Not Active,Not Active,Not Active,Not Active,Not Active,Not Active,Not Active,Not Active,Not Active,Not Active,Not Active,Not Active,–,–,–,–
O=P1(NCCCl)OCCCN1CCCl (stereo not drawn) [IFOSFAMIDE],Not Active,Not Active,Not Active,Not Active,Not Active,Not Active,Not Active,Not Active,Not Active,Not Active,Not Active,Not Active,Not Active,Not Active,Not Active,–,–,–,–
CC(C)NC[C@H](O)COc1cccc2[nH]ccc12,Not Active,Not Active,Not Active,Not Active,Not Active,Not Active,Not Active,Not Active,Not Active,Not Active,Not Active,Not Active,Not Active,Not Active,Not Active,–,–,–,–
O=C1NC(=O)C(c2ccccc2)(c2ccccc2)N1 [PHENYTOIN],Not Active,Not Active,Not Active,Not Active,Not Active,Not Active,Not Active,Not Active,Not Active,Not Active,Not Active,Not Active,Not Active,Not Active,Not Active,–,–,–,–
C=C1CC[C@H](O)C/C1=C/C=C1\CCC[C@]2(C)[C@@H]([C@H](C)/C=C/[C@H](C)C(C)C)CC[C@@H]12 [ERGOCALCIFEROL],Not Active,Not Active,Not Active,Not Active,Not Active,Not Active,Not Active,Not Active,Not Active,Not Active,Not Active,Not Active,Not Active,Not Active,Not Active,–,–,–,–
COc1ccc(CN(CCN(C)C)c2ccccn2)cc1 [PYRILAMINE],Not Active,Not Active,–,Not Active,Not Active,Not Active,Not Active,Not Active,Not Active,Not Active,Not Active,Not Active,Not Active,Not Active,Not Active,2790 nM,1770 nM,–,–
CCc1ccc(C(=O)C(C)CN2CCCCC2)cc1 (stereo not drawn) [EPERISONE],Not Active,Not Active,Not Active,–,–,Not Active,Not Active,Not Active,Not Active,Not Active,Not Active,Not Active,Not Active,Not Active,Not Active,–,–,1060 nM,655 nM
CCC1(c2ccccc2)C(=O)NCNC1=O [PRIMIDONE],Not Active,Not Active,Not Active,Not Active,Not Active,Not Active,Not Active,Not Active,Not Active,Not Active,Not Active,Not Active,Not Active,Not Active,Not Active,–,–,–,–
CC1(C)S[C@@H]2[C@H](NC(=O)[C@H](N)c3ccc(O)cc3)C(=O)N2[C@H]1C(=O)O [AMOXICILLIN],Not Active,Not Active,Not Active,Not Active,Not Active,Not Active,Not Active,Not Active,Not Active,Not Active,Not Active,–,–,Not Active,Not Active,–,–,–,–
